The values below come from patent US9340497B2, “Method for the preparation of (3S,3S′) 4,4′-disulfanediylbis (3-aminobutane 1-sulfonic acid)” (QUANTUM GENOMICS, priority 2010, dated 2016).

Structures are written as SMILES.

The conditions of data set [1]: as described by Bodineau et al. in Hypertension 2008 51, 1318-1325; cited from earlier work.
Data set [2] in a line: Thermal stability of the product of each step (Table 1). Format: physicochemical. Particulars: product of step (e) of the preferred method; cell text split over r17-r19: No decomposition observed. The text has this: Table 1 provides the reaction enthalpies, the purities (determined by HPLC and expressed as molar percentages) and the stabilities of the products of each step for this preferred method.

Data set [3] in a line: Stability of solid forms (neat, hydrates) under ambient conditions. Format: physicochemical. Particulars: ambient conditions: 15-25° C., atmospheric pressure, relative humidity above 50%; hydrate mixtures evolve to the trihydrate within a few days. Here is the method:
Any mixture of hydrates of compound I will evolve within a few days towards the trihydrate form in ambient conditions. Ambient conditions as used herein refer to a temperature between 15° C. and 25° C., at atmospheric pressure, and a relative humidity rate above 50%.

Usually melting point stands for the temperature, or range, at which the solid turns liquid. As to `N[C@@H](CCS(=O)(=O)O)CSSC[C@@H](N)CCS(=O)(=O)O` [Compound I, (3S,3S′) 4,4′-disulfanediylbis(3-aminobutane 1-sulfonic acid)], the melting point is 78 °C. Moreover, in data set [1], the Anti-hypertensor efficacy result is “efficient anti-hypertensor agent”. Also, the “Stability: decomposition” value in data set [2] is “No”.

As for `N[C@@H](CCS(=O)(=O)O)CSSC[C@@H](N)CCS(=O)(=O)O.O.O.O` [compound I, (3H2O)], the “Relative stability of solid form” value in data set [3] was “most stable form”.
